Measurements published in patent US10865216B2, “Tricyclic Gyrase inhibitors” (MERCK SHARP & DOHME CORP., priority 2012, dated 2020).
In brackets after ≈: the same amount, converted by molar mass.

What was measured:
[1] = system: S. aureus ATCC 13709; test: MIC, S. aureus ATCC 13709; assay type: cell-based; details: for MIC: Staphylococcus aureus, ATCC13709, S. aureus, read-out: MIC Sa
[2] = system: E. coli ATCC 25922; test: MIC, E. coli ATCC 25922; assay type: cell-based; details: for MIC: Escherichia coli, ATCC25922, E. coli, read-out: MIC Ec
[3] = Alamar Blue read after overnight incubation at 35° C.
[4] = S. aureus, Alamar Blue read after overnight incubation at 35° C.
[5] = E. coli, Alamar Blue read after overnight incubation at 35° C.

| Structure (SMILES) | MIC [1, 3] [µg/mL] | MIC [2, 3] [µg/mL] | MIC Sa ([1]; Table 18, Sa) [µg/mL] | MIC Ec ([2]; Table 18, Ec) [µg/mL] | other results |
| --- | --- | --- | --- | --- | --- |
| CNc1cc(F)cc2c1[nH]c1nc(Oc3cnc(C)nc3)nc(N3CC(N)C(C(=O)OC)C3)c12 (centres unmarked) [Compound 4.437] | ≤ 0.5 | 1 (≈ 2.14 µM) |  |  |  |
| CNc1cc(F)cc2c1[nH]c1nc(Oc3cnc(C)nc3)nc(N3CC(N)C(C(=O)N4CCOCC4)C3)c12 (centres unmarked) [Compound 4.438] | 1 (≈ 1.92 µM) | 16 (≈ 30.7 µM) |  |  |  |
| CNc1cc(F)cc2c1[nH]c1nc(Oc3cnc(C)nc3)nc(N3CC(N)C(C(=O)NCC(C)O)C3)c12 (centres unmarked) [Compound 4.439] | 8 (≈ 15.7 µM) | > 16 |  |  |  |
| CNc1cc(F)cc2c1[nH]c1nc(Oc3cnc(C)nc3)nc(N3CC(N)C(C(=O)NCCN4CCOCC4)C3)c12 (centres unmarked) [Compound 4.440] | 16 (≈ 28.3 µM) | > 16 |  |  |  |
| CNc1cc(F)cc2c1[nH]c1nc(Oc3cnc(C(C)(C)C)nc3)nc(N3CC4CC3C[C@H]4N)c12 (some centres unmarked) [Compound 4.441] | ≤ 0.5 | ≤ 0.5 |  |  |  |
| CNc1cc(F)cc2c1[nH]c1nc(Oc3cnc(C(C)(C)N)nc3)nc(N3C[C@H]4CC3C[C@H]4N)c12 [Compound 4.442] | 1 (≈ 2.09 µM) | 2 (≈ 4.19 µM) |  |  |  |
| CNc1cc(F)cc2c1[nH]c1nc(Oc3cnc(CF)nc3)nc(N3C[C@H]4CC3C[C@H]4N)c12 [Compound 4.443] | ≤ 0.5 | ≤ 0.5 |  |  |  |
| CNc1cc(F)cc2c1[nH]c1nc(Oc3cnc(C)nc3)nc(-c3ccc(F)cc3CN)c12 [Compound 4.445] | 2 (≈ 4.47 µM) | > 16 |  |  |  |
| CNc1cc(F)cc2c1[nH]c1nc(Oc3cnc(C)nc3)nc(-c3cc(CN)ccc3F)c12 [Compound 4.446] | 2 (≈ 4.47 µM) | 8 (≈ 17.9 µM) |  |  |  |
| CNc1cc(F)cc2c1[nH]c1nc(Oc3cnc(C)nc3)nc(-c3cccc(CN)c3F)c12 [Compound 4.447] | 4 (≈ 8.94 µM) | 16 (≈ 35.8 µM) |  |  |  |
| CNc1cc(F)cc2c1[nH]c1nc(Oc3cnc(C)nc3)nc(-c3cccnc3N)c12 [Compound 4.448] | ≤ 0.5 | 1 (≈ 2.4 µM) |  |  |  |
| CNc1cc(F)cc2c1[nH]c1nc(Oc3cnc(C)nc3)nc(-c3cncnc3)c12 [Compound 4.449] | ≤ 0.5 | > 16 |  |  |  |
| CNc1cc(F)cc2c1[nH]c1nc(Oc3cnc(C)nc3)nc(-c3cncc(N)c3)c12 [Compound 4.450] | ≤ 0.5 | 2 (≈ 4.8 µM) |  |  |  |
| CNc1cc(F)c(F)c2c1[nH]c1nc(Oc3ncc(C)cn3)nc(N3CC4C(N)C4C3)c12 (centres unmarked) [Compound 5.04] |  |  |  |  | MIC Sa [1, 4]: ≤0.5 µg/mL; MIC Ec [2, 5]: ≤0.5 µg/mL |
| CNc1cc(F)c(F)c2c1[nH]c1nc(Oc3ncc(C)cn3)nc(N3CC(N)C3)c12 [Compound 5.06] |  |  |  |  | MIC Sa [1, 4]: ≤0.5 µg/mL; MIC Ec [2, 5]: ≤0.5 µg/mL |
| CNc1cc(F)c(F)c2c1[nH]c1nc(Oc3cnc(CO)nc3)nc(N3C[C@H]4C[C@@H]3C[C@H]4N)c12 [Compound 5.14] | ≤ 0.5 | ≤ 0.5 |  |  |  |
| CNc1cc(F)c(F)c2c1[nH]c1nc(Oc3cnc4c(c3)ncn4C3CC3)nc(N3C[C@H]4C[C@@H]3C[C@H]4N)c12 [Compound 5.15] | ≤ 0.5 | 1 (≈ 1.93 µM) |  |  |  |
| CNc1cc(F)c(F)c2c1[nH]c1nc(Oc3cncnc3)nc(N3CC4C(N)C4C3)c12 (centres unmarked) [Compound 6.19] |  |  |  |  | MIC Sa [1, 4]: >16 µg/mL; MIC Ec [2, 5]: >16 µg/mL |
| CNc1cc(F)c(C)c2c1[nH]c1nc(Oc3cnc(C)nc3)nc(N3CC4(CCC4N)C3)c12 (centres unmarked) [Compound 6.20] |  |  |  |  | MIC Sa [1, 4]: 4 µg/mL (≈ 8.92 µM); MIC Ec [2, 5]: >16 µg/mL |

| Structure (SMILES) | MIC [1, 3] [µg/mL] | MIC [2, 3] [µg/mL] | MIC Sa ([1]; Table 18, Sa) [µg/mL] | MIC Ec ([2]; Table 18, Ec) [µg/mL] | other results |
| --- | --- | --- | --- | --- | --- |
| CNc1cc(F)c(C)c2c1[nH]c1nc(Oc3cnc(C)nc3)nc(NCCCN)c12 [Compound 6.21] |  |  |  |  | MIC Sa [1, 4]: >16 µg/mL; MIC Ec [2, 5]: >16 µg/mL |
| CNc1cc(C)cc2c1[nH]c1nc(Oc3cnc(C)nc3)nc(N3CC4C(N)C4C3)c12 (centres unmarked) [Compound 6.26] |  |  |  |  | MIC Sa [1, 4]: ≤0.5 µg/mL; MIC Ec [2, 5]: 1 µg/mL (≈ 2.4 µM) |
| CNc1cc(C)cc2c1[nH]c1nc(Oc3cncnc3)nc(N3CC4C(N)C4C3)c12 (centres unmarked) [Compound 6.27] |  |  |  |  | MIC Sa [1, 4]: ≤0.5 µg/mL; MIC Ec [2, 5]: 1 µg/mL (≈ 2.48 µM) |
| CNc1nccc2c1[nH]c1nc(Sc3cnc4nccnc4c3)nc(N3CC[C@@H](N)C3)c12 [Compound 7.01] | 8 (≈ 18 µM) | > 64 |  |  |  |
| CNc1nccc2c1[nH]c1nc(Oc3cncnc3)nc(N3CC[C@@H](N)C3)c12 [Compound 7.02] | > 64 | 32 (≈ 84.8 µM) |  |  |  |
| COc1nccc2c1[nH]c1nc(Sc3cnc4cccnc4c3)nc(N3CC4C(N)C4C3)c12 (centres unmarked) [Compound 7.03] | 2 (≈ 4.38 µM) | > 64 |  |  |  |
| CNc1ncnc2c1[nH]c1nc(Oc3cncc(F)c3)nc(N3CC4C(N)C4C3)c12 (centres unmarked) [Compound 7.04] | 8 (≈ 19.6 µM) | 32 (≈ 78.5 µM) |  |  |  |
| CNc1ncnc2c1[nH]c1nc(Oc3cnc(C)nc3)nc(N3CC4C(N)C4C3)c12 (centres unmarked) [Compound 7.05] | 8 (≈ 19.8 µM) | 64 (≈ 158 µM) |  |  |  |
| CNc1ncnc2c1[nH]c1nc(Oc3cncc(F)c3)nc(N3CC(N)C4(CC4)C3)c12 (centres unmarked) [Compound 7.06] | 8 (≈ 19 µM) | 64 (≈ 152 µM) |  |  |  |
| CNc1nccc2c1[nH]c1nc(Oc3cncc(F)c3)nc(N3CCC4(CC4N)C3)c12 (centres unmarked) [Compound 7.07] | 16 (≈ 38.1 µM) | > 64 |  |  |  |
| CNc1ncnc2c1[nH]c1nc(Oc3cnc(C)nc3)nc(N3CC(N)C4(CC4)C3)c12 (centres unmarked) [Compound 7.08] | 16 (≈ 38.2 µM) | > 64 |  |  |  |
| CNc1ncnc2c1[nH]c1nc(Oc3cnc(C)nc3)nc(N3CCC4(CC4N)C3)c12 (centres unmarked) [Compound 7.09] | 8 (≈ 19.1 µM) | > 64 |  |  |  |
| CNc1ncnc2c1[nH]c1nc(Oc3cncnc3)nc(Oc3cncnc3)c12 [Compound 7.10] | > 64 | > 64 |  |  |  |
| CNc1ncnc2c1[nH]c1nc(-c3cncnc3)nc(N3CC4C(N)C4C3)c12 (centres unmarked) [Compound 7.11] | > 64 | > 64 |  |  |  |
| CNc1ncnc2c1[nH]c1nc(Oc3cnc(C)nc3)nc(N3CCC(CN)C3)c12 (centres unmarked) [Compound 7.12] | > 64 | > 64 |  |  |  |
| CNc1cccc2c1[nH]c1nc(Oc3cncnc3)nc(Oc3cncnc3)c12 [Compound 8.1] | 2 (≈ 5.18 µM) | > 64 |  |  |  |
| CNc1cccc2c1[nH]c1nc(Oc3cnc(C)nc3)nc(Oc3cnc(C)nc3)c12 [Compound 8.2] | 1 (≈ 2.41 µM) | > 32 |  |  |  |
| CNc1cccc2c1[nH]c1nc(Oc3ccc[n+]([O-])c3)nc(Oc3cnc(C)nc3)c12 [Compound 8.3] | 2 (≈ 4.81 µM) | 64 (≈ 154 µM) |  |  |  |
| CNc1cccc2c1[nH]c1nc(Oc3cnc(N)nc3)nc(Oc3cnc(N)nc3)c12 [Compound 8.4] | 8 (≈ 19.2 µM) | > 64 |  |  |  |

The next lines start with results.

| MIC [1, 3] [µg/mL] | MIC [2, 3] [µg/mL] | MIC Sa ([1]; Table 18, Sa) [µg/mL] | MIC Ec ([2]; Table 18, Ec) [µg/mL] | Structure (SMILES) | other results |
| --- | --- | --- | --- | --- | --- |
|  |  | ≤ 0.5 | ≤ 0.5 | CNc1cc(F)cc2c1[nH]c1nc(Sc3nncs3)nc(N3C[C@H]4C[C@@H]3C[C@H]4N)c12 [Compound 10.11] |  |
|  |  | ≤ 0.5 | ≤ 0.5 | CNc1cc(F)cc2c1[nH]c1nc(Oc3cnc4ccnn4c3)nc(N3CC[C@]4(C[C@@H]4N)C3)c12 [Compound 10.12] |  |
|  |  | ≤ 0.5 | ≤ 0.5 | CNc1cc(F)cc2c1[nH]c1nc(Oc3cnc4ccnn4c3)nc(N3C[C@H]4CCN[C@H]4C3)c12 [Compound 10.13] |  |
|  |  | ≤ 0.5 | ≤ 0.5 | CNc1cc(F)cc2c1[nH]c1nc(Oc3cnc4ccoc4c3)nc(N3C[C@H]4CCN[C@H]4C3)c12 [Compound 10.14] |  |
|  |  | ≤ 0.5 | ≤ 0.5 | CNc1cc(F)cc2c1[nH]c1nc(Oc3cnc(C(C)O)c(Cl)c3)nc(N3C[C@H]4C[C@@H]3C[C@H]4N)c12 (some centres unmarked) [Compound 10.15] |  |
|  |  | ≤ 0.5 | ≤ 0.5 | CNc1cc(F)cc2c1[nH]c1nc(Oc3cnc(C(C)O)c(Cl)c3)nc(N3CC4CCNC4C3)c12 (centres unmarked) [Compound 10.16] |  |
|  |  | ≤ 0.5 | ≤ 0.5 | CNc1cc(F)cc2c1[nH]c1nc(Oc3cnc(C(C)O)c(Cl)c3)nc(N3CC4C[C@@H](N)C4C3)c12 (some centres unmarked) [Compound 10.17] |  |
|  |  | ≤ 0.5 | ≤ 0.5 | CNc1cc(F)cc2c1[nH]c1nc(Oc3cnc4ccnn4c3)nc(N3C[C@@H]4[C@H](N)C[C@]4(C)C3)c12 [Compound 10.18] |  |
|  |  | ≤ 0.5 | ≤ 0.5 | CNc1cc(F)cc2c1[nH]c1nc(Oc3cnc4c(C)cnn4c3)nc(N3C[C@H]4C[C@@H]3C[C@H]4N)c12 [Compound 10.19] |  |
|  |  | ≤ 0.5 | ≤ 0.5 | CNc1cc(F)cc2c1[nH]c1nc(Oc3cnc4c(C)cnn4c3)nc(N3C[C@H](N)C4(CC4)C3)c12 [Compound 10.20] |  |
|  |  | ≤ 0.5 | ≤ 0.5 | CNc1cc(F)c(F)c2c1[nH]c1nc(Oc3cnc4ccnn4c3)nc(N3C[C@H]4C[C@@H]3C[C@H]4N)c12 [Compound 10.21] |  |
|  |  | ≤ 0.5 | ≤ 0.5 | CNc1cc(F)cc2c1[nH]c1nc(Oc3ccn4ccnc4c3)nc(N3C[C@H]4C[C@@H]3C[C@H]4N)c12 [Compound 10.22] |  |
|  |  | ≤ 0.5 | ≤ 0.5 | CNc1cc(F)cc2c1[nH]c1nc(Oc3cnc4c(Cl)cnn4c3)nc(N3C[C@H]4C[C@@H]3C[C@H]4N)c12 [Compound 10.23] |  |
|  |  | ≤ 0.5 | ≤ 0.5 | CNc1cc(F)cc2c1[nH]c1nc(Oc3cnc4c(C)cnn4c3)nc(N3C[C@H]4CCN[C@H]4C3)c12 [Compound 10.24] |  |
|  |  | ≤ 0.5 | ≤ 0.5 | CNc1cc(F)c(F)c2c1[nH]c1nc(Oc3cnc([C@H](C)O)nc3)nc(N3C[C@H]4C[C@@H]3C[C@H]4N)c12 [Compound 10.25] |  |
|  |  | ≤ 0.5 | ≤ 0.5 | CNc1cc(F)c(F)c2c1[nH]c1nc(Oc3cnc4c(C)cnn4c3)nc(N3C[C@H]4C[C@@H]3C[C@H]4N)c12 [Compound 10.26] |  |
|  |  | ≤ 0.5 | ≤ 0.5 | CNc1cc(F)cc2c1[nH]c1nc(Oc3cnc(/C(C)=N/OC)nc3)nc(N3C[C@H]4C[C@@H]3C[C@H]4N)c12 [Compound 10.27] |  |
|  |  | ≤ 0.5 | ≤ 0.5 | CNc1cc(F)c(F)c2c1[nH]c1nc(Oc3cnc4ccnn4c3)nc(N3C[C@H]4C[C@@H](N)[C@H]4C3)c12 [Compound 10.28] |  |
|  |  | ≤ 0.5 | ≤ 0.5 | CNc1cc(F)cc2c1[nH]c1nc(Oc3cnc(C(C)O)c(F)c3)nc(N3C[C@H]4C[C@@H]3C[C@H]4N)c12 (some centres unmarked) [Compound 10.29] |  |
|  |  | ≤ 0.5 | ≤ 0.5 | CNc1cc(F)cc2c1[nH]c1nc(Oc3cnc4c(C)cnn4c3)nc(N3CC4C[C@@H](N)C4C3)c12 (some centres unmarked) [Compound 10.30] |  |
